Read-outs that look alike come from different tables or passages of the source.
Experiments:
[1] = system: allergic conjunctivitis of guinea pigs; assay: Allergic conjunctivitis, histamine content in lacrimal fluid (Test 4); format: in vivo, Hartley guinea pigs
Protocol: (§1) This test was carried out to estimate the therapeutic effect of the compounds according to the present invention on the allergic conjunctivitis of guinea pigs.
(§2) Hartley guinea pigs were passively sensitized by intravenously injecting 1 ml of anti-DNP-As serum. After 8 days, an antigen solution (DNP-BSA: 2.5 mg/ml) was dropped on the sinistral eye once a minute over 10 minutes, then the lacrimal fluid was collected with filter paper over 10 minutes while the inflammatory reaction of the eye was visually observed during the collection of the lacrimal fluid. At 10 minutes after the completion of the dropping of the antigen solution, the compounds to be examined were dropped on the eye once a minute over 10 minutes and thereafter the collection of the lacrimal fluid and the visual observation of the inflammatory reaction of the eye were likewise effected. Then, the amount of histamine present in the collected lacrimal fluid was determined according to the Komatsu's method (Michitoshi KOMATSU, Allergy, 1978, Vol. 27, pp. 67-74).
(§3) In addition, the concentration of MTCC used was 10^-3 g/ml and that of DSCG was 2×10^-2 g/ml.

[2] = system: allergic conjunctivitis of guinea pigs; assay: Allergic conjunctivitis, visual observation of inflammatory reaction of the eye (Test 4); format: in vivo, Hartley guinea pigs; settings: MTCC 10^-3 g/ml, DSCG 2×10^-2 g/ml, dropped on the eye after antigen
Protocol: as §1, §2, §3

[3] = Acute toxicity test, dog (Test 5); format: in vivo; settings: dog, in vivo, po; Male, p.o. (capsule); 14 days observation
Protocol: (§4) MTCC was administered to ddY Mice (body weight 20 to 23 g; 10 animals per test group) and Wistar rats (body weight 110 to 130 g; 10 animals per test group) through intravenous and oral routes and it was also administered to Beagle dogs (7 months old; 3 animals per test group) through oral route.
(§5) MTCC was administered to rats and mice in the form of a solution thereof in 0.1 M phosphate buffer in the case of intravenous administration and in the form of a suspension in 0.5% CMC-Na in the case of oral administration. While it was orally administered to dogs in the form of a capsule filled with the original powder.

Dog = assay: Acute toxicity test, dog (Test 5); format: in vivo; settings: Female, p.o. (capsule); 14 days observation
Protocol: as §4, §5

[4] = Water solubility / hydrophilicity (statement in words); format: physicochemical
[5] = system: metachromatic cells in nasal mucus; assay: Degranulation inhibitory effect on metachromatic cells in nasal mucus, experimental allergic rhinitis (Test 2); format: in vivo, Wistar rats; settings: intranasal 0.5 ml/100 g, 5 minutes before antigen, average of 5
Protocol: This test was carried out to examine the degranulation inhibitory effect of the compounds of the present invention on the metachromatic cells in nasal mucus originated from a rat suffering from experimental allergic rhinitis.
Wistar rats were passively sensitized by subcutaneously injecting anti-Cryptomeria Japonica-Ascaris serum of rat. After anesthetizing the rat with pentobarbital sodium, they were fixed while lying them on their back and the cervixes thereof were subjected to median incision. A polyethylene tube having an outer diameter of 1 mm was inserted into the internal nares of each rat through the incised portion of trachea, one end thereof was connected to a perfusion pump and sterilized physiologic saline warmed at 37° C. was perfused therethrough at a flow rate of 0.25 ml/min. 1 ml of the antigen extracted from pollen of Japanese cedar (10 micro liter per ml) was sprayed in both internal nares by means of an atomizer for internal nares and the perfusate delivered from the internal nares was recovered for 20 minutes. The number of degranulated cells per 100 metachromatic cells present in the recovered samples were scored and the value was regarded as that of the control (Nc).
The compound to be tested were dissolved in 0.15M phosphate buffer so as to obtain a solution of a desired concentration, each solution was administered through both of the interanal nares in an amount of 0.5 ml/100 g body weight, at a time 5 minutes before the spray of the antigen and the number of degranulated cells (Nt) was scored according to the same manner as described above. The rate of inhibitory effect on the degranulation (Rd) was estimated from the following relation: [formula] Each experimental results is the average of 5 measurements.

[6] = Acute toxicity test, mouse (Test 5); format: in vivo; settings: mouse, in vivo, Male, 14 days observation
Protocol: as §4, §5

Mouse = assay: Acute toxicity test, mouse (Test 5); format: in vivo; settings: Female, 14 days observation
Protocol: as §4, §5

[7] = Acute toxicity test, rat (Test 5); format: in vivo; settings: rat, in vivo, Male, 14 days observation
Protocol: as §4, §5

Rat = assay: Acute toxicity test, rat (Test 5); format: in vivo; settings: Female, 14 days observation
Protocol: as §4, §5

[8] = system: rats suffering from experimental allergic rhinitis; assay: Nasal mucus secretion inhibitory effect, experimental allergic rhinitis (Test 3); format: in vivo, Wistar rats; settings: brilliant blue in nasal perfusate, average of 5
Text: This test was effected to examine the nasal mucus secretion inhibitory effect of the compounds according to the present invention on the rats suffering from experimental allergic rhinitis.
Wistar rats were passively sensitized by subcutaneously injecting anti-Cryptomeria Japonica-As serum of rat. After anesthetizing the rat with pentobarbital sodium, they were fixed while lying them on their back and the cervixes thereof were subjected to median incision. A polyethylene tube having an outer diameter of 1 mm was inserted into the internal nares of each rat through the incised portion of trachea, one end thereof was connected to a perfusion pump and sterilized physiologic saline warmed at 37° C. was perfused therethrough at a flow rate of 0.25 ml/min.
Then, 0.5 ml/100 g body weight of 4% brilliant blue was injected into the rat through the caudal vein, then the perfusate was recovered for 10 minutes and the concentration of the dye was determined which was regarded as the Ag (-) value of the control. 1 ml of the antigen extracted from pollen of Japanese cedar (1 micro liter per ml) was sprayed in both internal nares by means of an atomizer for internal nares, the antigen remaining in the internal nares was washed out with physiologic saline and the perfusate was then recovered for 30 minutes and the concentration of the dye was determined to estimate Ag (+) value of the control.
The compound to be tested were dissolved in 0.15 M phosphate buffer so as to form a solution of a desired concentration. Each of the solutions thus prepared was sprayed in both internal nares in an amound of 0.5 ml/100g body weight at the time of 5 minutes before the spray of the antigen and the concentration of the dye was determined on each sample. In this connection, the measurement of the dye concentration was effected according to the spectrophotometric method developed by M. Kojima et al. (Allergy, 1986, Vol. 35, pp. 180-187).

[9] = Japanese Journal of Pharmacology, 1982, Vol. 32, pp. 689-697; cited from earlier work
[10] = After Dropping of Antigen (before compound)
[11] = After Dropping of Compound, MTCC 10^-3 g/ml, DSCG 2×10^-2 g/ml

## O=C(O)C(=O)Nc1cccc(-c2nnn[nH]2)c1 [MTCC, 3-(1H-tetrazol-5-yl)oxanilic acid]
[1]; [10]
  Histamine Content in Lacrimal Fluid: 6.3 ng
[1]; [11]
  Histamine Content in Lacrimal Fluid: 2.4 ng
[1]; by the administration of MTCC, 10^-3 g/ml
  Histamine content in the lacrimal fluid (in words): substantially reduced
[2]
  Therapeutic effect on swelling and congestion of the conjunctiva (visual observation): excellent therapeutic effect
[3]
  LD50 at 336 h: > 2000 mg/kg
Dog
  Acute Toxicity LD50: > 2000 mg/kg
[4]
  Water solubility (in words): hydrophyilic or soluble in water
[5]; Concn. 10^-4 g/ml
  Rate of Inhibition of Degranulation Rd (%): 94.3%
[5]; Concn. 10^-5 g/ml
  Rate of Inhibition of Degranulation Rd (%): 75.1%
[5]; Concn. 10^-6 g/ml
  Rate of Inhibition of Degranulation Rd (%): 33.0%
[5]; Concn. 10^-7 g/ml
  Rate of Inhibition of Degranulation Rd (%): 15.0%
[5]; Concn. 10^-8 g/ml
  Rate of Inhibition of Degranulation Rd (%): -1.4%
[6]; iv
  LD50 at 336 h: > 225 mg/kg
[6]; po
  LD50 at 336 h: > 2000 mg/kg
Mouse; i.v.
  Acute Toxicity LD50: > 225 mg/kg
Mouse; p.o.
  Acute Toxicity LD50: > 2000 mg/kg
[7]; iv
  LD50 at 336 h: > 180 mg/kg
[7]; po
  LD50 at 336 h: > 2000 mg/kg
Rat; i.v.
  Acute Toxicity LD50: > 180 mg/kg
Rat; p.o.
  Acute Toxicity LD50: > 2000 mg/kg
[8]; Concn. 10^-4 g/ml
  Dye Concentration: 0.64 micro gr./ml
[8]; Concn. 10^-5 g/ml
  Dye Concentration: 0.85 micro gr./ml
[8]; Concn. 10^-6 g/ml
  Dye Concentration: 0.99 micro gr./ml
[8]; Concn. 10^-7 g/ml
  Dye Concentration: 1.37 micro gr./ml
[8]; Concn. 10^-8 g/ml
  Dye Concentration: 1.74 micro gr./ml

## CCCCOC(=O)C(=O)Nc1cccc(-c2nnn[nH]2)c1 [MTB, Butyl 3(1H--tetrazol5-yl)oxanilate]
[9]
  Water solubility (in words): hydrophobic or less soluble in water

## O=C(O)c1cc(=O)c2c(OCC(O)COc3cccc4oc(C(=O)O)cc(=O)c34)cccc2o1 [DSCG, Disodium Chromoglycate, reference compound]
[1]; [10]
  Histamine Content in Lacrimal Fluid: 6.7 ng
[1]; [11]
  Histamine Content in Lacrimal Fluid: 6.4 ng
[2]
  Therapeutic effect on swelling and congestion of the conjunctiva (visual observation): relatively low therapeutic effect
[5]; Concn. 10^-4 g/ml
  Rate of Inhibition of Degranulation Rd (%): 90.3%
[5]; Concn. 10^-5 g/ml
  Rate of Inhibition of Degranulation Rd (%): 71.5%
[5]; Concn. 10^-6 g/ml
  Rate of Inhibition of Degranulation Rd (%): 39.4%
[5]; Concn. 10^-7 g/ml
  Rate of Inhibition of Degranulation Rd (%): 8.1%
[5]; Concn. 10^-8 g/ml
  Rate of Inhibition of Degranulation Rd (%): -1.7%
[8]; Concn. 10^-4 g/ml
  Dye Concentration: 0.65 micro gr./ml
[8]; Concn. 10^-5 g/ml
  Dye Concentration: 0.89 micro gr./ml
[8]; Concn. 10^-6 g/ml
  Dye Concentration: 1.01 micro gr./ml
[8]; Concn. 10^-7 g/ml
  Dye Concentration: 1.44 micro gr./ml
[8]; Concn. 10^-8 g/ml
  Dye Concentration: 1.77 micro gr./ml

— US4795754A, “3-(1H-tetrazol-5-y1)oxanilic acid and salts thereof and pharmaceutical compositions containing them” (Wakamoto Pharmaceutical Co., Ltd., priority 1986, dated 1989)
